Earlier results as cited in patent publication US12124166B2, “Negative resist formulation for producing undercut pattern profiles” (Merck Patent GmbH, priority 2017, dated 2024).

Conditions: for pKa (Quencher's pKa values): Table 9; for pKa in water: stated in the Materials descriptions of commercial quenchers

Structure (SMILES): CCc1ncc[nH]1 [2EI, 2-Ethylimidazole]
- pKa (Quencher's pKa values): 8.22
- pKa in water: ~8.22

Structure (SMILES): CCCCCCCCCCCCCCCCCC1=NCCN1CCO [Addi-MC, 2-(2-heptadecyl-4,5-dihydro-1H-imidazol-1-yl)ethan-1-ol]
- pKa in water: ~10.08

Structure (SMILES): COCCOCCN(CCOCCOC)CCOCCOC [MNNE, 2-(2-methoxyethoxy)-N,N-bis[2-(2-methoxyethoxy)ethyl]-Ethanamine]
- pKa (Quencher's pKa values): 6.92
- pKa in water: ~6.92

Structure (SMILES): c1ccc(N(c2ccccc2)c2ccccc2)cc1 [DPA, triphenylamine]
- pKa (Quencher's pKa values): −3.04
- pKa in water: ~−3.04

Structure (SMILES): OCCn1ccnc1 [IA, 1-(2-hydroxyethylimidazole)]
- pKa (Quencher's pKa values): 6.78
- pKa in water: ~6.78

Structure (SMILES): CCN(C(C)C)C(C)C [N,N diisopropylethylamine]
- pKa (Quencher's pKa values): 10.98

Structure (SMILES): CC(C)c1cccc(C(C)C)c1N [DIPA, 2,6-diisopropylaniline]
- pKa (Quencher's pKa values): 4.25
- pKa in water: ~4.25

Structure (SMILES): CCCN(C)CCC [N-Methyldipropylamine]
- pKa (Quencher's pKa values): 9.91
